Measurements as given in ChEMBL document CHEMBL4813981, “Synthesis and in vitro antibacterial activity of new aminothiazole-oximepiperidone cephalosporins” (2021).
Converted amounts (≈) assume the structure as drawn.

Tests used:
Format in all cases: functional
Klebsiella pneumoniae [1] = experiment: Antibacterial activity against Carbapenem- resistant Klebsiella pneumoniae KR 15-9 assessed as reduction in bacterial growth
Escherichia coli [2] = experiment: Antibacterial activity against ESBLs positive Carbapenem-sensitive Escherichia coli 17-11 assessed as reduction in bacterial growth
Acinetobacter baumannii [3] = experiment: Antibacterial activity against Carbapenem- resistant Acinetobacter baumannii 17-13 assessed as reduction in bacterial growth
Pseudomonas aeruginosa [4] = experiment: Antibacterial activity against Carbapenem- sensitive Pseudomonas aeruginosa 17-22 assessed as reduction in bacterial growth
Escherichia coli [5] = experiment: Antibacterial activity against ESBLs positive Carbapenem-sensitive Escherichia coli 17-3 assessed as reduction in bacterial growth
Escherichia coli [6] = experiment: Antibacterial activity against ESBLs positive Carbapenem-sensitive Escherichia coli 17-22 assessed as reduction in bacterial growth
Escherichia coli [7] = experiment: Antibacterial activity against Escherichia coli NCTC 13353 assessed as reduction in bacterial growth
Acinetobacter baumannii [8] = experiment: Antibacterial activity against Carbapenem- resistant Acinetobacter baumannii 17-5 assessed as reduction in bacterial growth
Escherichia coli [9] = experiment: Antibacterial activity against ESBLs positive Carbapenem-sensitive Escherichia coli 17-18 assessed as reduction in bacterial growth
Acinetobacter baumannii [10] = experiment: Antibacterial activity against Carbapenem- resistant Acinetobacter baumannii 17-9 assessed as reduction in bacterial growth
Klebsiella pneumoniae [11] = experiment: Antibacterial activity against Carbapenem- resistant Klebsiella pneumoniae KR 15-6 assessed as reduction in bacterial growth
Pseudomonas aeruginosa [12] = experiment: Antibacterial activity against Carbapenem- sensitive Pseudomonas aeruginosa 17-21 assessed as reduction in bacterial growth
Klebsiella pneumoniae [13] = experiment: Antibacterial activity against ESBLs negative Carbapenem-sensitive Klebsiella pneumoniae 17-16 assessed as reduction in bacterial growth
Klebsiella pneumoniae [14] = experiment: Antibacterial activity against Carbapenem- resistant Klebsiella pneumoniae KR 15-5 assessed as reduction in bacterial growth
Enterobacter cloacae [15] = experiment: Antibacterial activity against Enterobacter cloacae 17-2 assessed as reduction in bacterial growth
Pseudomonas aeruginosa [16] = experiment: Antibacterial activity against Carbapenem- sensitive Pseudomonas aeruginosa 17-24 assessed as reduction in bacterial growth
Acinetobacter baumannii [17] = experiment: Antibacterial activity against Carbapenem- resistant Acinetobacter baumannii 17-3 assessed as reduction in bacterial growth
Klebsiella aerogenes [18] = experiment: Antibacterial activity against Enterobacter aerogenes 15-6 assessed as reduction in bacterial growth
Escherichia coli [19] = experiment: Antibacterial activity against ESBLs negative Carbapenem-sensitive Escherichia coli 17-7 assessed as reduction in bacterial growth
Klebsiella aerogenes [20] = experiment: Antibacterial activity against Enterobacter aerogenes 17-2 assessed as reduction in bacterial growth
Enterobacter cloacae [21] = experiment: Antibacterial activity against Enterobacter cloacae 17-3 assessed as reduction in bacterial growth
Escherichia coli [22] = experiment: Antibacterial activity against ESBLs positive Carbapenem-sensitive Escherichia coli 17-2 assessed as reduction in bacterial growth
Escherichia coli [23] = experiment: Antibacterial activity against ESBLs positive Carbapenem-sensitive Escherichia coli 17-10 assessed as reduction in bacterial growth
Klebsiella pneumoniae [24] = experiment: Antibacterial activity against Carbapenem- resistant Klebsiella pneumoniae KR 15-4 assessed as reduction in bacterial growth
Enterobacter cloacae [25] = experiment: Antibacterial activity against Enterobacter cloacae 17-9 assessed as reduction in bacterial growth
Klebsiella pneumoniae [26] = experiment: Antibacterial activity against Carbapenem- sensitive Klebsiella pneumoniae 17-10 overexpressing extended spectrum beta-lactamases assessed as reduction in bacterial growth
Klebsiella pneumoniae [27] = experiment: Antibacterial activity against ESBLs negative Carbapenem-sensitive Klebsiella pneumoniae 17-17 assessed as reduction in bacterial growth
Klebsiella pneumoniae [28] = experiment: Antibacterial activity against Carbapenem- sensitive Klebsiella pneumoniae 17-7 overexpressing extended spectrum beta-lactamases assessed as reduction in bacterial growth
Klebsiella pneumoniae [29] = experiment: Antibacterial activity against Carbapenem- resistant Klebsiella pneumoniae KR 15-7 assessed as reduction in bacterial growth
Enterobacter cloacae [30] = experiment: Antibacterial activity against Enterobacter cloacae 17-4 assessed as reduction in bacterial growth
Klebsiella pneumoniae [31] = experiment: Antibacterial activity against Carbapenem- sensitive Klebsiella pneumoniae 17-1 overexpressing extended spectrum beta-lactamases assessed as reduction in bacterial growth
Escherichia coli [32] = experiment: Antibacterial activity against ESBLs positive Carbapenem-sensitive Escherichia coli 17-15 assessed as reduction in bacterial growth
Klebsiella pneumoniae [33] = experiment: Antibacterial activity against ESBLs negative Carbapenem-sensitive Klebsiella pneumoniae 17-20 assessed as reduction in bacterial growth
Enterobacter cloacae [34] = experiment: Antibacterial activity against Enterobacter cloacae 17-5 assessed as reduction in bacterial growth
Klebsiella pneumoniae [35] = experiment: Antibacterial activity against Klebsiella pneumoniae ATCC BAA-1705 assessed as reduction in bacterial growth
Escherichia coli [36] = experiment: Antibacterial activity against ESBLs positive Carbapenem-sensitive Escherichia coli 17-5 assessed as reduction in bacterial growth
Acinetobacter baumannii [37] = experiment: Antibacterial activity against Carbapenem- resistant Acinetobacter baumannii 17-11 assessed as reduction in bacterial growth
Klebsiella aerogenes [38] = experiment: Antibacterial activity against Enterobacter aerogenes 17-1 assessed as reduction in bacterial growth
Klebsiella pneumoniae [39] = experiment: Antibacterial activity against Carbapenem- sensitive Klebsiella pneumoniae 17-2 overexpressing extended spectrum beta-lactamases assessed as reduction in bacterial growth
Escherichia coli [40] = experiment: Antibacterial activity against ESBLs positive Carbapenem-sensitive Escherichia coli 17-12 assessed as reduction in bacterial growth
Klebsiella pneumoniae [41] = experiment: Antibacterial activity against Carbapenem- sensitive Klebsiella pneumoniae 17-3 overexpressing extended spectrum beta-lactamases assessed as reduction in bacterial growth
Pseudomonas aeruginosa [42] = experiment: Antibacterial activity against Carbapenem- resistant Pseudomonas aeruginosa 17-8 assessed as reduction in bacterial growth
Escherichia coli [43] = experiment: Antibacterial activity against Escherichia coli ATCC 25922 assessed as reduction in bacterial growth
Escherichia coli [44] = experiment: Antibacterial activity against ESBLs positive Carbapenem-sensitive Escherichia coli 17-8 assessed as reduction in bacterial growth
Acinetobacter baumannii [45] = experiment: Antibacterial activity against Carbapenem- resistant Acinetobacter baumannii 17-10 assessed as reduction in bacterial growth
Enterobacter cloacae [46] = experiment: Antibacterial activity against Enterobacter cloacae 17-8 assessed as reduction in bacterial growth
Klebsiella pneumoniae [47] = experiment: Antibacterial activity against Carbapenem- sensitive Klebsiella pneumoniae 17-8 overexpressing extended spectrum beta-lactamases assessed as reduction in bacterial growth
Pseudomonas aeruginosa [48] = experiment: Antibacterial activity against Carbapenem- sensitive Pseudomonas aeruginosa 17-10 assessed as reduction in bacterial growth
Enterobacter cloacae [49] = experiment: Antibacterial activity against Enterobacter cloacae 17-7 assessed as reduction in bacterial growth
Escherichia coli [50] = experiment: Antibacterial activity against ESBLs negative Carbapenem-sensitive Escherichia coli 17-16 assessed as reduction in bacterial growth
Pseudomonas aeruginosa [51] = experiment: Antibacterial activity against Carbapenem- sensitive Pseudomonas aeruginosa 17-29 assessed as reduction in bacterial growth
Klebsiella pneumoniae [52] = experiment: Antibacterial activity against Carbapenem- sensitive Klebsiella pneumoniae 17-15 overexpressing extended spectrum beta-lactamases assessed as reduction in bacterial growth
Escherichia coli [53] = experiment: Antibacterial activity against ESBLs positive Carbapenem-sensitive Escherichia coli 17-6 assessed as reduction in bacterial growth
Klebsiella pneumoniae [54] = experiment: Antibacterial activity against Carbapenem- sensitive Klebsiella pneumoniae 17-11 overexpressing extended spectrum beta-lactamases assessed as reduction in bacterial growth

Nc1nc(/C(=N/OCc2cc(=O)c(O)cn2O)C(=O)N[C@@H]2C(=O)N3C(C(=O)O)=CCS[C@H]23)cs1
MIC (Klebsiella pneumoniae [1]): > 64 µg/mL
MIC (Escherichia coli [2]): > 64 µg/mL
MIC (Acinetobacter baumannii [3]): > 64 µg/mL
MIC (Pseudomonas aeruginosa [4]): 1 µg/mL (≈ 1.97 µM)
MIC (Escherichia coli [5]): 2 µg/mL (≈ 3.93 µM)
MIC (Escherichia coli [6]): > 64 µg/mL
MIC (Escherichia coli [7]): > 64 µg/mL
MIC (Acinetobacter baumannii [8]): > 64 µg/mL
MIC (Escherichia coli [9]): 8 µg/mL (≈ 15.7 µM)
MIC (Acinetobacter baumannii [10]): > 64 µg/mL
MIC (Klebsiella pneumoniae [11]): 16 µg/mL (≈ 31.5 µM)
MIC (Pseudomonas aeruginosa [12]): 4 µg/mL (≈ 7.87 µM)
MIC (Klebsiella pneumoniae [13]): 0.5 µg/mL (≈ 0.983 µM)
MIC (Klebsiella pneumoniae [14]): > 64 µg/mL
MIC (Enterobacter cloacae [15]): > 64 µg/mL
MIC (Pseudomonas aeruginosa [16]): 4 µg/mL (≈ 7.87 µM)
MIC (Acinetobacter baumannii [17]): > 64 µg/mL
MIC (Klebsiella aerogenes [18]): 16 µg/mL (≈ 31.5 µM)
MIC (Escherichia coli [19]): 2 µg/mL (≈ 3.93 µM)
MIC (Klebsiella aerogenes [20]): 64 µg/mL (≈ 126 µM)
MIC (Enterobacter cloacae [21]): 64 µg/mL (≈ 126 µM)
MIC (Escherichia coli [22]): 2 µg/mL (≈ 3.93 µM)
MIC (Escherichia coli [23]): 4 µg/mL (≈ 7.87 µM)
MIC (Klebsiella pneumoniae [24]): > 64 µg/mL
MIC (Enterobacter cloacae [25]): 8 µg/mL (≈ 15.7 µM)
MIC (Klebsiella pneumoniae [26]): > 64 µg/mL
MIC (Klebsiella pneumoniae [27]): 0.125 µg/mL (≈ 0.246 µM)
MIC (Klebsiella pneumoniae [28]): > 64 µg/mL
MIC (Klebsiella pneumoniae [29]): > 64 µg/mL
MIC (Enterobacter cloacae [30]): 1 µg/mL (≈ 1.97 µM)
MIC (Klebsiella pneumoniae [31]): 64 µg/mL (≈ 126 µM)
MIC (Escherichia coli [32]): > 64 µg/mL
MIC (Klebsiella pneumoniae [33]): 0.06 µg/mL (≈ 0.118 µM)
MIC (Enterobacter cloacae [34]): 32 µg/mL (≈ 62.9 µM)
MIC (Klebsiella pneumoniae [35]): 64 µg/mL (≈ 126 µM)
MIC (Escherichia coli [36]): 64 µg/mL (≈ 126 µM)
MIC (Acinetobacter baumannii [37]): > 64 µg/mL
MIC (Klebsiella aerogenes [38]): 32 µg/mL (≈ 62.9 µM)
MIC (Klebsiella pneumoniae [39]): 2 µg/mL (≈ 3.93 µM)
MIC (Escherichia coli [40]): 4 µg/mL (≈ 7.87 µM)
MIC (Klebsiella pneumoniae [41]): > 64 µg/mL
MIC (Pseudomonas aeruginosa [42]): 32 µg/mL (≈ 62.9 µM)
MIC (Escherichia coli [43]): 0.5 µg/mL (≈ 0.983 µM)
MIC (Escherichia coli [44]): 16 µg/mL (≈ 31.5 µM)
MIC (Acinetobacter baumannii [45]): > 64 µg/mL
MIC (Enterobacter cloacae [46]): 16 µg/mL (≈ 31.5 µM)
MIC (Klebsiella pneumoniae [47]): > 64 µg/mL
MIC (Pseudomonas aeruginosa [48]): 2 µg/mL (≈ 3.93 µM)
MIC (Enterobacter cloacae [49]): > 64 µg/mL
MIC (Escherichia coli [50]): 2 µg/mL (≈ 3.93 µM)
MIC (Pseudomonas aeruginosa [51]): 2 µg/mL (≈ 3.93 µM)
MIC (Klebsiella pneumoniae [52]): 64 µg/mL (≈ 126 µM)
MIC (Escherichia coli [53]): 32 µg/mL (≈ 62.9 µM)
MIC (Klebsiella pneumoniae [54]): > 64 µg/mL
